Data as given in PMC6967409 (Frontiers in Chemistry, 2020).
Values after ≈ are worked out from the molar mass of the structure shown. Values joined by “and” are separate entries in the source; they are usually repeats but may differ in a detail not shown here. Equal values may be shown once. Read-outs that look alike come from different tables or passages of the source.

Tests used:
[1] = system: P. falciparum W2; assay: T0 [3H]-hypoxanthine drug susceptibility assay; type: cell-based; conditions: Plasmodium falciparum; for IC50: W2, read-out: W2 IC50; for IC90: W2, read-out: W2 IC90
[2] = system: P. berghei ANKA GFP-Luc-SMcon sporozoites; assay: P. berghei-luciferase liver stage bioluminescence assay (causal prophylactic mode) in HepG2-CD81 cells; type: cell-based, Plasmodium berghei; conditions: for Emax: 48 h, read-out: P.berghei-Luciferase Liver Stage Bioluminescence Assay: Maximum measured (%)
Procedure: (§1) Briefly, HepG2-CD81 cells were seeded into 1,536 well plates containing 50 nL of test and control compounds diluted into DMSO. […] Next, 2 μL of luciferin reagent (Promega BrightGlo) was added to each well and luciferase activity was detected using a Perkin Elmer Envision plate reader. […] In parallel, plates were processed without sporozoites for HepG2 toxicity measurements.
(§2) In continuation of the transmission blocking theme, it is important to establish activities against liver stage parasites. […] This assay uses ultra-high-throughput screening methods optimized for a 1536-well format and a HepG2 human hepatoma cell line. […] To establish selectivity of the compounds for the parasite in the liver stage of infection, cytotoxicity was determined by measuring bioluminescence from the reaction between free ATP of compound-treated, uninfected hepatocytes and a luciferase reporter system.

[3] = system: Chinese hamster ovarian (CHO) cells; conditions: read-out: Cytotoxicity EC50 CHO; MTT assay; ref Coertzen et al. (2018); cited from earlier work
[4] = system: P. falciparum W2; design: method as in Coertzen et al. (2018); conditions: SYBR Green I; ref Coertzen et al. (2018); read-out: Proliferative IC50 W2; cited from earlier work
[5] = system: P. falciparum K1; design: method as in Coertzen et al. (2018); conditions: SYBR Green I; ref Coertzen et al. (2018); read-out: Proliferative IC50 K1; cited from earlier work
[6] = system: P. falciparum NF54; design: method as in Coertzen et al. (2018); conditions: pLDH, 48 h; ref Coertzen et al. (2018); read-out: Metabolic IC50 NF54; cited from earlier work
[7] = system: P. falciparum ARC08-22 (4G); assay: T0 [3H]-hypoxanthine drug susceptibility assay, artemisinin-resistant clone (C580Y); type: cell-based, Plasmodium falciparum; conditions: preliminary, W2 as comparative sensitive strain
[8] = system: P. falciparum NF54; design: method as in Coertzen et al. (2018); conditions: SYBR Green I; ref Coertzen et al. (2018); read-out: Proliferative IC50 NF54; cited from earlier work
[9] = system: P. falciparum Dd2; design: method as in Coertzen et al. (2018); conditions: pLDH, 48 h; ref Coertzen et al. (2018); read-out: Metabolic IC50 Dd2; cited from earlier work
[10] = system: P. falciparum PL08-009 (5C); assay: T0 [3H]-hypoxanthine drug susceptibility assay, artemisinin-resistant clone (C580Y); type: cell-based, Plasmodium falciparum; conditions: preliminary, W2 as comparative sensitive strain
[11] = system: HepG2 cells; assay: HepG2 cytotoxicity bioluminescence assay (CellTiterGlo, ATP); type: cell-based, human; conditions: for HepG2 cytotoxicity IC50 (in words): at 25 μM (artemiside 7) and 50 μM (artemisone 8); for IC50 / HepG2 Cytotoxicity Bioluminescence Assay: Maximum measured (%): two biological replicates listed in one cell
Procedure: as §1, §2

[12] = as above; type: cell-based, human; conditions: human, uninfected HepG2-CD81 cells; for IC50 at 72 h: two biological replicates listed in one cell; for EC50 at 72 h: uninfected HepG2, ATP bioluminescence
Procedure: as §1, §2

[13] = system: P. falciparum NF54 late stage gametocytes (>90% stage IV and V); design: method as in Coertzen et al. (2018); conditions: read-out: Late Stage (LG, Luc 72 h) IC50; >90% stage IV and V gametocytes; ref Coertzen et al. (2018); cited from earlier work
[14] = system: P. falciparum NF54 early stage gametocytes (>90% stage I–III); design: method as in Coertzen et al. (2018); conditions: read-out: Early Stage (EG, Luc 48 h) IC50; >90% stage I–III gametocytes; ref Coertzen et al. (2018); cited from earlier work
[15] = design: method as in Haynes et al., 2006; conditions: ref Haynes et al., 2006; cited from earlier work
[16] = system: P. falciparum W2; design: method as in Lanteri et al., 2014; conditions: ref Lanteri et al., 2014; read-out: mean IC50 against W2; cited from earlier work
[17] = system: Pf CamWT, Cam3.II, CamWTC580Y, Cam3.IIC580Y, Cam3.IIRev; design: method as in Lanteri et al., 2014; conditions: ref Lanteri et al., 2014; read-out: mean IC50 across CamWT, Cam3.II and K13 transfected strains; cited from earlier work
[18] = Plasmodium berghei, two biological replicates listed in one cell
[19] = Plasmodium berghei, HepG2, 48 h, liver stage, HepG2 host cells, luciferase after 48 h, ±SD, read-out: P. berghei sporozoites IC50
[20] = Plasmodium berghei, two biological replicates listed in one cell, read-out: P.berghei-Luciferase Liver Stage Bioluminescence Assay: IC50

SMILES	IC50 [1] [nM]	IC90 [1] [nM]	Emax [2, 18] [%]	IC50 [2, 19] [nM]	IC50 [2, 20] [nM]	EC50 [3] [nM]	IC50 [4] [nM]	IC50 [5] [nM]	IC50 [6] [nM]	susceptibility of ARC08-22 (4G) clone (in words) [7]	IC50 [8] [nM]	IC50 [9] [nM]	susceptibility of PL08-009 (5C) clone (in words) [10]	HepG2 cytotoxicity IC50 (in words) [11]	IC50 [11] [nM]	IC50 at 72 h [12] [nM]	EC50 at 72 h [12] [nM]	IC50 [13] [nM]	IC50 [14] [nM]	IC50 [16] [nM]	other results
C[C@H]1[C@H](N2CCSCC2)O[C@@H]2O[C@@]3(C)CC[C@H]4[C@H](C)CC[C@@H]1[C@@]24OO3 [Artemiside 7, artemiside]	2.21 ± 0.42	4.28 ± 0.25	98.1	81.3 ± 9.62	74.5	> 271000	1.75 ± 0.27	1.6 ± 0.4	6 ± 1.8	no indication of reduced susceptibility	1.11 ± 0.17	8.2 ± 1.4	no indication of reduced susceptibility	no measurable IC50 values	> 25000	> 25000	> 25000	1.5 ± 0.5	16.4 ± 1		inhibition at 5 µM ([2]; Plasmodium berghei, Conc. 5 μM, read-out: P. berghei sporozoites Maximum inhibition %): 99 ± 1.34%; IC50 ([2]; two biological replicates listed in one cell, listed as 7 Artemiside (GC008), read-out: P.berghei-Luciferase Liver Stage Bioluminescence Assay: IC50): 88.1 nM; HepG2 Cytotoxicity Bioluminescence Assay: Maximum measured (%) ([11]; listed as 7 Artemiside (GC008)): 30.4% and 36.5%
CC1CCC2C(C)C(NS(N)(=O)=O)OC3OC4(C)CCC1C32OO4 (centres unmarked) [Sulfamide 11]	4.87 ± 0.59	7.53 ± 0.23				56000 ± 4600	2.04 ± 0.11	1.78 ± 0.26	10.9 ± 3.4		3 ± 1	16.9 ± 2.6						419 ± 59.5	15 ± 2		water solubility [15]: 294 µg/mL (≈ 811 µM)
C[C@H]1[C@@H](O)O[C@@H]2O[C@@]3(C)CC[C@H]4[C@H](C)CC[C@@H]1[C@@]24OO3 [DHA 2, dihydroartemisinin]	4.58 ± 2.54	10.3 ± 5.76				25200	1.74 ± 0.22	1.51 ± 0.33	0.8 ± 0.1		2.51 ± 0.19	5.7 ± 2						33.7 ± 1.98	43 ± 3.9	5.2	IC50 [17]: 11.2 nM
C[C@H]1[C@H](N2CCS(=O)(=O)CC2)O[C@@H]2O[C@@]3(C)CC[C@H]4[C@H](C)CC[C@@H]1[C@@]24OO3 [Artemisone 8, artemisone]	1.69 ± 0.36	3.42 ± 0.45	92.1	28	27.4	> 249000	1.6 ± 0.4	1.01 ± 0.19	3 ± 0.8	no indication of reduced susceptibility	1.2 ± 0.4	2.7 ± 0.3	no indication of reduced susceptibility	no measurable IC50 values	> 50000	> 50000	> 50000	42.4 ± 3.3	1.94 ± 0.11	1.9	inhibition at 10 µM ([2]; Plasmodium berghei, read-out: P. berghei sporozoites Maximum inhibition %): 93.3 ± 1.76%; inhibition of liver stage parasites ([2]; maintained down to 3 μM, 12-point titrations starting from 10 μM and […]): > 75%; IC50 ([2]; read-out: P. berghei sporozoites IC50, liver stage, HepG2 host cells, luciferase after 48 h, ±SD): 28.3 ± 1.27 nM; IC50 ([2]; two biological replicates listed in one cell, listed as 8 Artemisone (GC003), read-out: P.berghei-Luciferase Liver Stage Bioluminescence Assay: IC50): 29.2 nM; HepG2 Cytotoxicity Bioluminescence Assay: Maximum measured (%) ([11]; listed as 8 Artemisone (GC003)): 11.8% and 16.0%; IC50 [17]: 2.4 nM
